Source: ChEMBL document CHEMBL3045717, “Synthesis and pharmacological properties of some novel pyrazolidine and pyrazole derivatives” (2012)

system: Candida albicans; test: Antifungal activity against Candida albicans at 50 ug/ml after 48 to 72 hr by agar diffusion cup-plate method; format: functional; settings: read-out: DIZ

SMILES | zone of inhibition at 50 µg/mL [mm]
NC1=NN(c2ccc([N+](=O)[O-])cc2[N+](=O)[O-])C(=O)C1 | 12.3
O=[N+]([O-])c1ccc(NNC(=S)Nc2ccccc2)c([N+](=O)[O-])c1 | 11.5
O=C1CS/C(=N/c2ccccc2)N1Nc1ccc([N+](=O)[O-])cc1[N+](=O)[O-] | 11.1
Clc1ccccc1C(c1ccccc1)(c1ccccc1)n1ccnc1 [CLOTRIMAZOLE] | 28.4

system: Staphylococcus aureus; test: Antibacterial activity against Staphylococcus aureus at 200 ug/ml after 24 hr by agar diffusion cup-plate method; format: functional; settings: read-out: DIZ

SMILES | zone of inhibition at 200 µg/mL [mm]
NC1=NN(c2ccc([N+](=O)[O-])cc2[N+](=O)[O-])C(=O)C1 | 26
O=[N+]([O-])c1ccc(NNC(=S)Nc2ccccc2)c([N+](=O)[O-])c1 | 18
O=C1CS/C(=N/c2ccccc2)N1Nc1ccc([N+](=O)[O-])cc1[N+](=O)[O-] | 30.4
CCn1cc(C(=O)O)c(=O)c2cc(F)c(N3CCNCC3)cc21 [NORFLOXACIN] | 30.4

system: Staphylococcus aureus; test: Antibacterial activity against Staphylococcus aureus at 50 ug/ml after 24 hr by agar diffusion cup-plate method; format: functional; settings: read-out: DIZ

SMILES | zone of inhibition at 50 µg/mL [mm]
NC1=NN(c2ccc([N+](=O)[O-])cc2[N+](=O)[O-])C(=O)C1 | 14
O=[N+]([O-])c1ccc(NNC(=S)Nc2ccccc2)c([N+](=O)[O-])c1 | 10
O=C1CS/C(=N/c2ccccc2)N1Nc1ccc([N+](=O)[O-])cc1[N+](=O)[O-] | 16.2
CCn1cc(C(=O)O)c(=O)c2cc(F)c(N3CCNCC3)cc21 [NORFLOXACIN] | 30.4

system: Candida albicans; test: Antifungal activity against Candida albicans at 200 ug/ml after 48 to 72 hr by agar diffusion cup-plate method; format: functional; settings: read-out: DIZ

SMILES | zone of inhibition at 200 µg/mL [mm]
NC1=NN(c2ccc([N+](=O)[O-])cc2[N+](=O)[O-])C(=O)C1 | 20.8
O=[N+]([O-])c1ccc(NNC(=S)Nc2ccccc2)c([N+](=O)[O-])c1 | 18.4
O=C1CS/C(=N/c2ccccc2)N1Nc1ccc([N+](=O)[O-])cc1[N+](=O)[O-] | 24.2
Clc1ccccc1C(c1ccccc1)(c1ccccc1)n1ccnc1 [CLOTRIMAZOLE] | 28.4

system: Bacillus subtilis; test: Antibacterial activity against Bacillus subtilis at 100 ug/ml after 24 hr by agar diffusion cup plate method; format: functional; settings: read-out: DIZ

SMILES | zone of inhibition at 100 µg/mL [mm]
NC1=NN(c2ccc([N+](=O)[O-])cc2[N+](=O)[O-])C(=O)C1 | 8.1
O=[N+]([O-])c1ccc(NNC(=S)Nc2ccccc2)c([N+](=O)[O-])c1 | 14.1
O=C1CS/C(=N/c2ccccc2)N1Nc1ccc([N+](=O)[O-])cc1[N+](=O)[O-] | 20.8
CCn1cc(C(=O)O)c(=O)c2cc(F)c(N3CCNCC3)cc21 [NORFLOXACIN] | 31.3

system: Pseudomonas aeruginosa; test: Antibacterial activity against Pseudomonas aeruginosa at 50 ug/ml after 24 hr by agar diffusion cup-plate method; format: functional; settings: read-out: DIZ

SMILES | zone of inhibition at 50 µg/mL [mm]
NC1=NN(c2ccc([N+](=O)[O-])cc2[N+](=O)[O-])C(=O)C1 | 8.4
O=[N+]([O-])c1ccc(NNC(=S)Nc2ccccc2)c([N+](=O)[O-])c1 | 12
O=C1CS/C(=N/c2ccccc2)N1Nc1ccc([N+](=O)[O-])cc1[N+](=O)[O-] | 10.2
CCn1cc(C(=O)O)c(=O)c2cc(F)c(N3CCNCC3)cc21 [NORFLOXACIN] | 31.1

system: Candida albicans; test: Antifungal activity against Candida albicans at 100 ug/ml after 48 to 72 hr by agar diffusion cup-plate method; format: functional; settings: read-out: DIZ

SMILES | zone of inhibition at 100 µg/mL [mm]
NC1=NN(c2ccc([N+](=O)[O-])cc2[N+](=O)[O-])C(=O)C1 | 14
O=[N+]([O-])c1ccc(NNC(=S)Nc2ccccc2)c([N+](=O)[O-])c1 | 14.1
O=C1CS/C(=N/c2ccccc2)N1Nc1ccc([N+](=O)[O-])cc1[N+](=O)[O-] | 18.4
Clc1ccccc1C(c1ccccc1)(c1ccccc1)n1ccnc1 [CLOTRIMAZOLE] | 28.4

system: Escherichia coli; test: Antibacterial activity against Escherichia coli at 200 ug/ml after 24 hr by agar diffusion cup-plate method; format: functional; settings: read-out: DIZ

SMILES | zone of inhibition at 200 µg/mL [mm]
NC1=NN(c2ccc([N+](=O)[O-])cc2[N+](=O)[O-])C(=O)C1 | 20.6
O=[N+]([O-])c1ccc(NNC(=S)Nc2ccccc2)c([N+](=O)[O-])c1 | 18.6
O=C1CS/C(=N/c2ccccc2)N1Nc1ccc([N+](=O)[O-])cc1[N+](=O)[O-] | 30.1
CCn1cc(C(=O)O)c(=O)c2cc(F)c(N3CCNCC3)cc21 [NORFLOXACIN] | 35.5

system: Pseudomonas aeruginosa; test: Antibacterial activity against Pseudomonas aeruginosa at 100 ug/ml after 24 hr by agar diffusion cup-plate method; format: functional; settings: read-out: DIZ

SMILES | zone of inhibition at 100 µg/mL [mm]
NC1=NN(c2ccc([N+](=O)[O-])cc2[N+](=O)[O-])C(=O)C1 | 12.1
O=[N+]([O-])c1ccc(NNC(=S)Nc2ccccc2)c([N+](=O)[O-])c1 | 14.2
O=C1CS/C(=N/c2ccccc2)N1Nc1ccc([N+](=O)[O-])cc1[N+](=O)[O-] | 10.3
CCn1cc(C(=O)O)c(=O)c2cc(F)c(N3CCNCC3)cc21 [NORFLOXACIN] | 31.1

system: Escherichia coli; test: Antibacterial activity against Escherichia coli at 50 ug/ml after 24 hr by agar diffusion cup-plate method; format: functional; settings: read-out: DIZ

SMILES | zone of inhibition at 50 µg/mL [mm]
NC1=NN(c2ccc([N+](=O)[O-])cc2[N+](=O)[O-])C(=O)C1 | 12.3
O=[N+]([O-])c1ccc(NNC(=S)Nc2ccccc2)c([N+](=O)[O-])c1 | 10.2
O=C1CS/C(=N/c2ccccc2)N1Nc1ccc([N+](=O)[O-])cc1[N+](=O)[O-] | 18.2
CCn1cc(C(=O)O)c(=O)c2cc(F)c(N3CCNCC3)cc21 [NORFLOXACIN] | 35.4

system: Aspergillus niger; test: Antifungal activity against Aspergillus niger at 50 ug/ml after 48 to 72 hr by agar diffusion cup-plate method; format: functional; settings: read-out: DIZ

SMILES | zone of inhibition at 50 µg/mL [mm]
NC1=NN(c2ccc([N+](=O)[O-])cc2[N+](=O)[O-])C(=O)C1 | 8.4
O=[N+]([O-])c1ccc(NNC(=S)Nc2ccccc2)c([N+](=O)[O-])c1 | 10
O=C1CS/C(=N/c2ccccc2)N1Nc1ccc([N+](=O)[O-])cc1[N+](=O)[O-] | 10.2
Clc1ccccc1C(c1ccccc1)(c1ccccc1)n1ccnc1 [CLOTRIMAZOLE] | 28.4

system: Aspergillus niger; test: Antifungal activity against Aspergillus niger at 100 ug/ml after 48 to 72 hr by agar diffusion cup-plate method; format: functional; settings: read-out: DIZ

SMILES | zone of inhibition at 100 µg/mL [mm]
NC1=NN(c2ccc([N+](=O)[O-])cc2[N+](=O)[O-])C(=O)C1 | 10.1
O=[N+]([O-])c1ccc(NNC(=S)Nc2ccccc2)c([N+](=O)[O-])c1 | 14.2
O=C1CS/C(=N/c2ccccc2)N1Nc1ccc([N+](=O)[O-])cc1[N+](=O)[O-] | 14.5
Clc1ccccc1C(c1ccccc1)(c1ccccc1)n1ccnc1 [CLOTRIMAZOLE] | 28.4

system: Pseudomonas aeruginosa; test: Antibacterial activity against Pseudomonas aeruginosa at 200 ug/ml after 24 hr by agar diffusion cup-plate method; format: functional; settings: read-out: DIZ

SMILES | zone of inhibition at 200 µg/mL [mm]
NC1=NN(c2ccc([N+](=O)[O-])cc2[N+](=O)[O-])C(=O)C1 | 16.3
O=[N+]([O-])c1ccc(NNC(=S)Nc2ccccc2)c([N+](=O)[O-])c1 | 20.2
O=C1CS/C(=N/c2ccccc2)N1Nc1ccc([N+](=O)[O-])cc1[N+](=O)[O-] | 12
CCn1cc(C(=O)O)c(=O)c2cc(F)c(N3CCNCC3)cc21 [NORFLOXACIN] | 31.1

system: Bacillus subtilis; test: Antibacterial activity against Bacillus subtilis at 50 ug/ml after 24 hr by agar diffusion cup plate method; format: functional; settings: read-out: DIZ

SMILES | zone of inhibition at 50 µg/mL [mm]
NC1=NN(c2ccc([N+](=O)[O-])cc2[N+](=O)[O-])C(=O)C1 | 10.4
O=[N+]([O-])c1ccc(NNC(=S)Nc2ccccc2)c([N+](=O)[O-])c1 | 10.2
O=C1CS/C(=N/c2ccccc2)N1Nc1ccc([N+](=O)[O-])cc1[N+](=O)[O-] | 12
CCn1cc(C(=O)O)c(=O)c2cc(F)c(N3CCNCC3)cc21 [NORFLOXACIN] | 31.3

system: Aspergillus niger; test: Antifungal activity against Aspergillus niger at 200 ug/ml after 48 to 72 hr by agar diffusion cup-plate method; format: functional; settings: read-out: DIZ

SMILES | zone of inhibition at 200 µg/mL [mm]
NC1=NN(c2ccc([N+](=O)[O-])cc2[N+](=O)[O-])C(=O)C1 | 14.3
O=[N+]([O-])c1ccc(NNC(=S)Nc2ccccc2)c([N+](=O)[O-])c1 | 16.2
O=C1CS/C(=N/c2ccccc2)N1Nc1ccc([N+](=O)[O-])cc1[N+](=O)[O-] | 16.6
Clc1ccccc1C(c1ccccc1)(c1ccccc1)n1ccnc1 [CLOTRIMAZOLE] | 28.4

system: Bacillus subtilis; test: Antibacterial activity against Bacillus subtilis at 200 ug/ml after 24 hr by agar diffusion cup plate method; format: functional; settings: read-out: DIZ

SMILES | zone of inhibition at 200 µg/mL [mm]
NC1=NN(c2ccc([N+](=O)[O-])cc2[N+](=O)[O-])C(=O)C1 | 12
O=[N+]([O-])c1ccc(NNC(=S)Nc2ccccc2)c([N+](=O)[O-])c1 | 18.4
O=C1CS/C(=N/c2ccccc2)N1Nc1ccc([N+](=O)[O-])cc1[N+](=O)[O-] | 26.4
CCn1cc(C(=O)O)c(=O)c2cc(F)c(N3CCNCC3)cc21 [NORFLOXACIN] | 31.3

system: Staphylococcus aureus; test: Antibacterial activity against Staphylococcus aureus at 100 ug/ml after 24 hr by agar diffusion cup-plate method; format: functional; settings: read-out: DIZ

SMILES | zone of inhibition at 100 µg/mL [mm]
NC1=NN(c2ccc([N+](=O)[O-])cc2[N+](=O)[O-])C(=O)C1 | 20
O=[N+]([O-])c1ccc(NNC(=S)Nc2ccccc2)c([N+](=O)[O-])c1 | 14
O=C1CS/C(=N/c2ccccc2)N1Nc1ccc([N+](=O)[O-])cc1[N+](=O)[O-] | 22.2
CCn1cc(C(=O)O)c(=O)c2cc(F)c(N3CCNCC3)cc21 [NORFLOXACIN] | 30.4

system: Escherichia coli; test: Antibacterial activity against Escherichia coli at 100 ug/ml after 24 hr by agar diffusion cup-plate method; format: functional; settings: read-out: DIZ

SMILES | zone of inhibition at 100 µg/mL [mm]
NC1=NN(c2ccc([N+](=O)[O-])cc2[N+](=O)[O-])C(=O)C1 | 16
O=[N+]([O-])c1ccc(NNC(=S)Nc2ccccc2)c([N+](=O)[O-])c1 | 14.1
O=C1CS/C(=N/c2ccccc2)N1Nc1ccc([N+](=O)[O-])cc1[N+](=O)[O-] | 26.1
CCn1cc(C(=O)O)c(=O)c2cc(F)c(N3CCNCC3)cc21 [NORFLOXACIN] | 35.4
